Measured values taken from patent publication EP4817428A1, “SWEETNESS ENHANCER CONTAINING ERGOTHIONEINE AS ACTIVE INGREDIENT, AND FOOD OR BEVERAGE PRODUCT CONTAINING SAME” (Kikkoman Corporation, priority 2023, dated 2025).
Like-named read-outs stand apart in the source and are kept apart here.

Key:
[1] = type: in vivo; conditions: ERG added to water to a final concentration of 60 ppm; all the five panelists
Procedure: In the same manner as in Test 1, sucrose samples having six concentrations of 0%, 1%, 1.5%, 2%, 2.5%, and 3%, and as a seventh sample, a sample in which ergothioneine was added to water to a final concentration of 60 ppm were prepared. A drinking test by the same expert panel of five as in Test 1 was conducted, and after tasting each sample and before tasting the next sample, the mouth was completely rinsed with water at room temperature, and sweetness was sensorially evaluated. The panel of five experts was asked to select a sample having an equivalent sweetness from among the 1st to 6th sucrose samples (the concentration was not disclosed to the panel) regarding the sweetness of the 7th sample.

[2] = type: in vivo
Procedure: Samples were prepared by adding ergothioneine to 1% to 50% sucrose solutions to final concentrations of 0 ppm, 0.05 ppm, 0.1 ppm, 0.25 ppm, and 0.5 ppm (ERG0 to 0.5 in Table 1 below; hereinafter, "ERGX" means a sample to which X ppm of ERG is added).
A drinking test by an expert panel of four, different from those in Tests 1 and 2, was conducted on 1% to 50% sucrose samples to which ERG was added at each concentration (the concentration was not disclosed to the panel), using a 1% to 50% sucrose sample to which no ergothioneine was added as a control, and sweetness was sensorially evaluated. After tasting each sample and before tasting the next sample, the mouth was completely rinsed with water at room temperature. Pairs combining the control 1% to 50% sucrose sample and the 1% to 50% sucrose sample containing ergothioneine at each concentration were presented to the expert panel, and the panel evaluated which sample of the presented pair was perceived to be sweeter by a paired comparison test.
(§1) Evaluation results of sweetness of test product compared with control • ∘: Sweetness was enhanced compared to the control. • ◇: Sweetness was similar to that of the control.

[3] = Test 5: sensory evaluation, selection of glucose sample of equivalent sweetness; type: in vivo; conditions: 15% glucose sample containing 60 ppm ERG
Procedure: Glucose was added to pure water to prepare glucose samples having six concentrations of 0%, 13%, 14%, 15%, 16%, and 17%; and as a seventh sample, a sample in which ergothioneine was added to 15% glucose to a final concentration of 60 ppm was prepared.
Sweetness was sensorially evaluated by the same expert panel of five trained sweetness-sensitive subjects as in Test 1. The panel of five experts was asked to select a sample having an equivalent sweetness from among the 1st to 6th glucose samples (the concentration was not disclosed to the panel) regarding the sweetness of the 7th 15% glucose sample containing 60 ppm ERG.

[4] = type: in vivo; conditions: 50% glucose solution
Procedure: as §1
Samples ERG0 to 900 were prepared by adding ergothioneine to 50% glucose samples to final concentrations of 0.5 ppm, 1 ppm, 3 ppm, 5 ppm, 10 ppm, 20 ppm, 60 ppm, 100 ppm, 400 ppm, and 900 ppm (Table 4).
Pairs combining a control 50% glucose sample to which ergothioneine was not added and a 50% glucose sample containing ergothioneine at each concentration were presented to the expert panel of four, and the panel evaluated which sample of the presented pair was perceived to be sweeter by a paired comparison test.

[5] = Test 7: sensory evaluation, selection of fructose sample of equivalent sweetness; type: in vivo; conditions: 5% fructose sample containing 60 ppm ERG
Procedure: Fructose was added to pure water to prepare fructose samples having six concentrations of 0%, 4.5%, 5%, 5.25%, 5.5%, and 6%; and as a seventh sample, a sample in which ergothioneine was added to 5% fructose to a final concentration of 60 ppm was prepared.
Sweetness was sensorially evaluated by the same expert panel of five trained sweetness-sensitive subjects as in Test 1. The panel of five experts was asked to select a sample having an equivalent sweetness from among the 1st to 6th fructose samples (the concentration was not disclosed to the panel) regarding the sweetness of the 7th 5% fructose sample containing 60 ppm ERG.

[6] = type: in vivo; remark: listed apart in the source
Procedure: as §1
Samples (ERG0 to 10) were prepared by adding ergothioneine to 20% fructose samples to final concentrations of 0.5 ppm, 1 ppm, 3 ppm, 5 ppm, and 10 ppm.
A drinking test by a panel of four experts was conducted on 20% fructose samples to which ERG was added at each concentration (the concentration was not disclosed to the panel), using a 20% fructose sample to which no ergothioneine was added as a control, and sweetness was sensorially evaluated.
In addition, samples (ERG0.5 to 900) were prepared by adding ergothioneine to 20% fructose samples to final concentrations of 0.5 ppm, 5 ppm, 10 ppm, 20 ppm, 40 ppm, 60 ppm, 80 ppm, 100 ppm, 200 ppm, 400 ppm, and 900 ppm.
Pairs combining 20% fructose samples containing different concentrations of ERG (for example, a pair of ERG 20 ppm and 40 ppm) were presented to the expert panel, and the panel evaluated which sample of the presented pair was perceived to be sweeter by a paired comparison test.

[7] = Test 9 (2): paired comparison test of sweetness, 50% liquid sugar sample; type: in vivo; conditions: 50% liquid sugar samples
Procedure: (§2) In the following Test 9, sensory evaluation was performed by a panel of three experts in the same paired comparison test as in Tests 3, 5, and 7.
Samples were prepared by adding ERG to a 50% liquid sugar sample of an isomerized sugar containing 55% or more of fructose (New Fructo 55 (NF55), Showa Sangyo Co., Ltd.) to the ERG concentrations shown in Table 13 (ERG0 to 20). Pairs combining a control 50% liquid sugar sample and a 50% liquid sugar sample containing ERG at each concentration were presented, and the panel evaluated which sample of the presented pair was perceived to be sweeter by a paired comparison test.

[8] = Test 9 (4): paired comparison test of sweetness, 50% oligosaccharide sample; type: in vivo; conditions: 50% oligosaccharide samples
Procedure: as §2
Samples were prepared by adding ERG to a 50% oligosaccharide sample of an oligosaccharide (Fuji Oligo #450, Nihon Shokuhin Kako Co., Ltd.) to the ERG concentrations shown in Table 15 (ERG0 to 10). Pairs combining a control 50% oligosaccharide sample and a 50% oligosaccharide sample containing ERG at each concentration were presented, and the panel evaluated which sample of the presented pair was perceived to be sweeter by a paired comparison test.

[9] = Test 9 (5): paired comparison test of sweetness, 10% aspartame sample; type: in vivo; conditions: 10% aspartame samples
Procedure: as §2
Samples were prepared by adding ERG to a 10% aspartame sample of aspartame (Pal Sweet Slim Up Sugar, Ajinomoto Co., Inc.) to the ERG concentrations shown in Table 16 (ERG0 to 20). Pairs combining a control 10% aspartame sample and a 10% aspartame sample containing ERG at each concentration were presented, and the panel evaluated which sample of the presented pair was perceived to be sweeter by a paired comparison test.

[10] = Test 9 (6): paired comparison test of sweetness, 0.1% stevia sample; type: in vivo; conditions: 0.1% stevia samples
Procedure: as §2
Pairs combining a control 0.1% stevia sample and a 0.1% stevia sample containing ERG at each concentration were presented, and the panel evaluated which sample of the presented pair was perceived to be sweeter by a paired comparison test.

[11] = Test 9 (7): paired comparison test of sweetness, 12.5% glycine sample; type: in vivo; conditions: 12.5% glycine samples
Procedure: as §2
Pairs combining a control 12.5% glycine sample and a 12.5% glycine sample containing ERG at each concentration were presented, and the panel evaluated which sample of the presented pair was perceived to be sweeter by a paired comparison test.

[12] = type: in vivo; conditions: specially selected whole soybean soy sauce
Procedure: as §1
Soy sauces were prepared by adding ergothioneine to a commercially available specially selected whole soybean soy sauce (Kikkoman Corporation) to addition concentrations of 10 ppm, 20 ppm, and 50 ppm (EGR10, 20, 50).
A drinking test by a panel of three experts was conducted on the soy sauce to which ERG was added at each concentration (the concentration was not disclosed to the panel), using a soy sauce to which no ergothioneine was added (ERG0) as a control, and the sweetness was sensorially evaluated by a paired comparison test.

[13] = sucrose solution of 0.5% or more and less than 1%
[14] = sucrose solution of 1% or more and less than 10%
[15] = sucrose solution of 10% or more

With `C[N+](C)(C)[C@@H](Cc1c[nH]c(=S)[nH]1)C(=O)[O-]` [ERG, Ergothioneine] the “sucrose solution of equivalent sweetness” value [1] was 0%, the “ERG added at which all evaluated that the sweetness was enhanced” value [2, 13] was at least 0.5 ppm and the “amount of ERG having a sweetness-enhancing effect relative to the sucrose content” value [2, 13] was at least 0.01 % by weight. The “ERG added at which all evaluated that the sweetness was enhanced” value [2, 14] was at least 0.25 ppm, the “amount of ERG having a sweetness-enhancing effect relative to the sucrose content” value [2, 14] was at least 0.0025 % by weight and the “ERG added at which all evaluated that the sweetness was enhanced” value [2, 15] was at least 0.1 ppm. For the same compound, the “amount of ERG having a sweetness-enhancing effect relative to the sucrose content” value [2, 15] was at least 0.0001 % by weight, the “glucose solution of equivalent sweetness” value ([3]; three of the five panelists) was 16% and the “glucose solution of equivalent sweetness” value ([3]; two of the five panelists) was 17%. For the same compound, the “ERG added at which all the panelists evaluated that the sweetness was enhanced” value [4] was at least 0.5 ppm, the “ERG having a sweetness-enhancing effect, based on the glucose content” value [4] was at least 0.0001 % by weight and the “fructose solution of equivalent sweetness” value ([5]; three of the five panelists) was 5.5%. For the same compound, the “fructose solution of equivalent sweetness” value ([5]; two of the five panelists) was 5.25%, the “ERG concentration at which the sweetness-enhancing effect became constant” value ([6]; 20% fructose) was 80 ppm and the “ERG added at which all the panelists evaluated that the sweetness was enhanced” value ([6]; 20% fructose samples) was at least 0.5 ppm. The “ERG having a sweetness-enhancing effect, based on the fructose content” value ([6]; 20% fructose samples) was at least 0.0003 % by weight, the “ERG added at which all the panelists evaluated that the sweetness was enhanced” value [7] was at least 0.5 ppm and the “ERG added at which all the panelists evaluated that the sweetness was enhanced” value [8] was at least 0.5 ppm. The “ERG added at which three panelists evaluated that the sweetness was enhanced” value [9] was at least 0.5 ppm, the “ERG having a sweetness-enhancing effect, based on the aspartame content” value [9] was at least 0.0005 % by weight and the “ERG added at which all the panelists evaluated that the sweetness was enhanced” value [10] was at least 0.5 ppm. For the same compound, the “ERG having a sweetness-enhancing effect, based on the stevia content” value [10] was at least 0.05 % by weight, the “ERG added at which all the panelists evaluated that the sweetness was enhanced” value [11] was at least 0.5 ppm and the “ERG having a sweetness-enhancing effect, based on the glycine content” value [11] was at least 0.0004 % by weight. The “ERG added at which all the panelists evaluated that the sweetness was enhanced” value [12] was at least 10 ppm.
